Results taken from patent publication US20060019995A1, “2,3-dihydro-4(1H)-pyridone derivatives , method for production thereof and pharmaceutical composition comprising the same” (priority 2002, published 2006).

Legend:
[1] = test system: social recognition (olfactory memory); assay: Social recognition in the Wistar rat; assay type: in vivo; settings: intraperitoneal route, 3 mg/kg, second encounter after 2 hours
Excerpt: Initially described in 1982 by THOR and HOLLOWAY (J. Comp. Physiol., 1982, 96, 1000-1006), the social recognition test has subsequently been proposed by various authors (DANTZER et al., Psychopharmacology, 1987, 91, 363-368; PER10 et al., Psycho-pharmacology, 1989, 97, 262-268) for studying the mnemocognitive effects of new compounds. The test is based on the natural expression of the olfactory memory of the rat and its natural tendency to forget and allows evaluation of memorisation, by recognition of a young congeneric animal, by an adult rat. A young rat (21 days), taken at random, is placed for 5 minutes in the cage housing an adult rat. With the aid of a video device, the experimenter observes the social recognition behaviour of the adult rat and measures its overall duration. The young rat is then removed from the adult rat's cage and is placed in its own cage until the second introduction. The adult rat is then given the compound under test (intraperitoneal route) and, after 2 hours, is again brought into the presence (5 minutes) of the young rat. The social recognition behaviour is then observed again and its duration measured.

[2] = test system: PBQ-induced abdominal cramps; assay: Abdominal contractions induced by phenyl-p-benzoquinone (PBQ) in the NMRI mouse; assay type: in vivo; settings: IP, 20 mg/kg, PBQ at t=30 min, cramps counted t=35 to 45 min
Experimental: Intraperitoneal administration of an alcoholic solution of PBQ causes abdominal cramps in the mouse (SIEGMUND et al., Proc. Soc. Exp. Biol., 1957, 95, 729-731). The cramps are characterised by repeated contractions of the abdominal musculature, accompanied by extension of the hind limbs. Most analgesics antagonise these abdominal cramps (COLLIER et al., Brit. J. Pharmacol. Chem., 1968, 32, 295-310). At t=0 min., the animals are weighed and the compound being studied is administered by the IP route. A group of control animals is given the solvent used for the compound. At t=30 min., an alcoholic solution of PBQ (0.2%) is administered by the IP route in a volume of 0.25 ml/mouse. Immediately after administration of the PBQ, the animals are placed in cylinders of plexiglass (L=19.5 cm; I.D.=5 cm). From t=35 min. to t=45 min., the animals' reaction is observed and the experimenter notes the total number of abdominal cramps per animal.

SMILES | T2 − T1 (s) ± sem, difference between recognition times of the 2 encounters [1] [s] | Inhibition (%) of the number of abdominal cramps measured in the control animals [2] [%]
CC1CC(=O)C=C(c2cccs2)N1C(=O)OC(C)(C)C (stereo not shown) [Example 1, Tert-butyl 2-methyl-4-oxo-6-(2-thienyl)-3,4-dihydro-1(2H)-pyridinecarboxylate] | -17.4 ± 2.5 | –
CC1CC(=O)C=C(c2cccs2)N1 (stereo not shown) [Example 2, 2-Methyl-6-(2-thienyl)-2,3-dihydro-4(1H)-pyridone] | – | 48
CC1CC(=O)C=C(c2ccccc2)N1C(=O)OC(C)(C)C (stereo not shown) [Example 3, Tert-butyl 2-methyl-4-oxo-6-phenyl-3,4-dihydro-1(2H)-pyridine-carboxylate] | -25.3 ± 7.1 | 59
CC1CC(=O)C=C(c2cccc(Cl)c2)N1 (stereo not shown) [Example 6, 6-(3-Chlorophenyl)-2-methyl-2,3-dihydro-4(1H)-pyridone] | -21.4 ± 5.1 | 48
CC1CC(=O)C=C(c2ccc(Cl)nc2)N1 (stereo not shown) [Example 8, 6-(6-Chloro-3-pyridyl)-2-methyl-2,3-dihydro-4(1H)-pyridone] | -17.2 ± 4.6 | –
